According to patent publication US20250171437A1 (Agios Pharmaceuticals,Inc., priority 2022, published 2025):

The compounds below were run against T1, human PAH with the R408W mutation (A375 R408W cells) (Homo sapiens, UniProt P00439, R408W) (assay: Cell Based Phenylalanine Flux Assay). Conditions: A375 R408W cells; 24 hrs with compound, then 20 μM sepiapterin and 800 μM 13C9,15N-Phenylalanine for 4 hours; 13C-Tyrosine by LC-MS; average where tested multiple times.
T1 construct: expressed in transfected cells
T1 sequence (P00439 1-452 R408W): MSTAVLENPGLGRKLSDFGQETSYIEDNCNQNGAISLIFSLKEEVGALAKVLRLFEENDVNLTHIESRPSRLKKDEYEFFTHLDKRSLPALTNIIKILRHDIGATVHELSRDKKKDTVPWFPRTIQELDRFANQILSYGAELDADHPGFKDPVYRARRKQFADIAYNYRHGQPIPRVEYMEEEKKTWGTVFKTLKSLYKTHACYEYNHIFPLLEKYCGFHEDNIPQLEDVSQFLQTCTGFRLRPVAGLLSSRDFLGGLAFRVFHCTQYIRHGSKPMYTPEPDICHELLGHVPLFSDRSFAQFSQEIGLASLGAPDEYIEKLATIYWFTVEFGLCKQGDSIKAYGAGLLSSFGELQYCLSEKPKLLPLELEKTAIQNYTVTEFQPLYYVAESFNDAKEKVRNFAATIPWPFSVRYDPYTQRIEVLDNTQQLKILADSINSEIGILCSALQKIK
Method in brief: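 A375 cells stably expressing human PAH R408W treated 24 h at 37° C with a 10-point 2-fold dose curve in duplicate, 0.5% DMSO. Then 20 μM sepiapterin and 800 μM 13C9,15N-Phe added for 4 h; 13C-Tyr in media measured by LC-MS to give AC50.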

Question: O=C(c1oc(N2CCOCC2)nc1C(F)F)N1CCc2[nH]cnc2[C@@H]1c1nc2cccc(F)c2o1 [Example 647, (R)-(4-(difluoromethyl)-2-morpholinooxazol-5-yl)(4-(7-fluorobenzo[d]oxazol-2-yl)-6,7-dihydro-1H-imidazo[4,5-c]pyridin-5(4H)-yl)methanone] was tested. Which AC50 did it give?
Answer: 500 to 1000 nM

Question: How did the AC50 turn out when O=C(c1cnn2cc(N3CCC(O)CC3)ccc12)N1CCc2[nH]cnc2[C@H]1c1nc2cccc(F)c2o1 [Example 371, (S)-(4-(7-fluorobenzo[d]oxazol-2-yl)-6,7-dihydro-1H-imidazo[4,5-c]pyridin-5(4H)-yl)(6-(4-hydroxypiperidin-1-yl)pyrazolo[1,5-a]pyridin-3-yl)methanone] was run?
Answer: 500 to 1000 nM

Question: How did the AC50 turn out when [2H][C@@]1(c2nc3cccc(F)c3o2)c2nc[nH]c2CCN1C(=O)c1ocnc1C(F)F [Example 899, (S)-(4-(difluoromethyl)oxazol-5-yl)(4-deuterium-4-(7-fluorobenzo[d]oxazol-2-yl)-6,7-dihydro-1H-imidazo[4,5-c]pyridin-5(4H)-yl)methanone] was run?
Answer: ≤ 500 nM

Question: With Cc1ncoc1C(=O)N1CCc2[nH]cnc2[C@H]1c1nc2c(F)ccc(F)c2o1 [Example 807, (S)-(4-(4,7-difluorobenzo[d]oxazol-2-yl)-6,7-dihydro-1H-imidazo[4,5-c]pyridin-5(4H)-yl)(4-methyloxazol-5-yl)methanone] as the compound, how does the AC50 read?
Answer: ≤ 500 nM

Question: O=C(c1nnc(-c2ccccn2)o1)N1CCc2[nH]cnc2[C@@H]1c1nc2cc(F)ccc2o1 [Example 40, (R)-(4-(5-fluorobenzo[d]oxazol-2-yl)-6,7-dihydro-1H-imidazo[4,5-c]pyridin-5(4H)-yl)(5-(pyridin-2-yl)-1,3,4-oxadiazol-2-yl)methanone] was tested. Which AC50 did it give?
Answer: 1000 to 5000 nM

Question: How did the AC50 turn out when O=C(c1ocnc1C(F)(F)F)N1CCc2[nH]cnc2[C@H]1c1nc2ccccc2o1 [Example 797, (S)-(4-(benzo[d]oxazol-2-yl)-6,7-dihydro-1H-imidazo[4,5-c]pyridin-5(4H)-yl)(4-(trifluoromethyl)oxazol-5-yl)methanone] was run?
Answer: ≤ 500 nM

Question: Cn1nc(C(F)F)nc1C(=O)N1CCc2[nH]cnc2[C@@H]1c1nc2cccc(F)c2o1 [Example 286, (R)-(3-(difluoromethyl)-1-methyl-1H-1,2,4-triazol-5-yl)(4-(7-fluorobenzo[d]oxazol-2-yl)-6,7-dihydro-1H-imidazo[4,5-c]pyridin-5(4H)-yl)methanone] was tested. Which AC50 did it give?
Answer: 1000 to 5000 nM

Question: How did the AC50 turn out when CC(C)(O)c1nc(Cl)c(C(=O)N2CCc3[nH]cnc3[C@H]2c2nc3cccc(F)c3o2)o1 [Example 272, (S)-(4-chloro-2-(2-hydroxypropan-2-yl)oxazol-5-yl)(4-(7-fluorobenzo[d]oxazol-2-yl)-6,7-dihydro-1H-imidazo[4,5-c]pyridin-5(4H)-yl)methanone] was run?
Answer: ≤ 500 nM

Question: Which AC50 does the source give for COCc1ccc2c(C(=O)N3CCc4[nH]cnc4[C@H]3c3nc4c(F)cccc4o3)cnn2c1 [Example 275, (S)-(4-(4-fluorobenzo[d]oxazol-2-yl)-6,7-dihydro-1H-imidazo[4,5-c]pyridin-5(4H)-yl)(6-(methoxymethyl)pyrazolo[1,5-a]pyridin-3-yl)methanone] here?
Answer: 500 to 1000 nM

Question: COc1cccc2oc([C@H]3c4nc[nH]c4CCN3C(=O)c3ncnn3C)nc12 [Example 904, (R)-(4-(4-methoxybenzo[d]oxazol-2-yl)-6,7-dihydro-1H-imidazo[4,5-c]pyridin-5(4H)-yl)(1-methyl-1H-1,2,4-triazol-5-yl)methanone] was tested. Which AC50 did it give?
Answer: ≥ 5000 nM

Question: FC(F)(F)c1nnc(N2Cc3[nH]cnc3[C@@H]2c2nc3ccccc3o2)o1 [Example 945, (R)-2-(5-(5-(trifluoromethyl)-1,3,4-oxadiazol-2-yl)-1,4,5,6-tetrahydropyrrolo[3,4-d]imidazol-4-yl)benzo[d]oxazole] was tested. Which AC50 did it give?
Answer: ≥ 5000 nM

Question: With O=C(c1ocnc1C(F)F)N1CCc2[nH]cnc2[C@@H]1c1nc2cc(OC(F)(F)F)ccc2o1 [Example 353, (R)-(4-(difluoromethyl)oxazol-5-yl)(4-(5-(trifluoromethoxy)benzo[d]oxazol-2-yl)-6,7-dihydro-1H-imidazo[4,5-c]pyridin-5(4H)-yl)methanone] as the compound, how does the AC50 read?
Answer: ≤ 500 nM

Question: How did the AC50 turn out when O=C(c1nnc(-c2c(F)cccc2F)o1)N1CCc2[nH]cnc2[C@@H]1c1nc2cc(F)ccc2o1 [Example 26, (R)-(5-(2,6-difluorophenyl)-1,3,4-oxadiazol-2-yl)(4-(5-fluorobenzo[d]oxazol-2-yl)-6,7-dihydro-1H-imidazo[4,5-c]pyridin-5(4H)-yl)methanone] was run?
Answer: 500 to 1000 nM

Question: Which AC50 does the source give for Cc1cccc2oc([C@H]3c4nc[nH]c4CCN3C(=O)c3nc(C(F)F)nn3C)nc12 [Example 448, (R)-(3-(difluoromethyl)-1-methyl-1H-1,2,4-triazol-5-yl)(4-(4-methylbenzo[d]oxazol-2-yl)-6,7-dihydro-1H-imidazo[4,5-c]pyridin-5(4H)-yl)methanone] here?
Answer: 1000 to 5000 nM

Question: CC(C)(O)c1nc(C(F)F)c(C(=O)N2CCc3[nH]cnc3[C@H]2c2nc3ccc(F)c(F)c3o2)o1 [Example 297, (S)-(4-(6,7-difluorobenzo[d]oxazol-2-yl)-6,7-dihydro-1H-imidazo[4,5-c]pyridin-5(4H)-yl)(4-(difluoromethyl)-2-(2-hydroxypropan-2-yl)oxazol-5-yl)methanone] was tested. Which AC50 did it give?
Answer: ≤ 500 nM

Question: How did the AC50 turn out when O=C(c1ccnn1C(F)(F)F)N1CCc2[nH]cnc2[C@H]1c1nc2cc(F)ccc2o1 [Example 261, (S)-(4-(5-fluorobenzo[d]oxazol-2-yl)-6,7-dihydro-1H-imidazo[4,5-c]pyridin-5(4H)-yl)(1-(trifluoromethyl)-1H-pyrazol-5-yl)methanone] was run?
Answer: 500 to 1000 nM

Question: With O=C(c1ocnc1C(F)F)N1CCc2[nH]cnc2[C@H]1c1nc2cccc(F)c2o1 [Example 173, (S)-(4-(difluoromethyl)oxazol-5-yl)(4-(7-fluorobenzo[d]oxazol-2-yl)-6,7-dihydro-1H-imidazo[4,5-c]pyridin-5(4H)-yl)methanone] as the compound, how does the AC50 read?
Answer: ≤ 500 nM

Question: How did the AC50 turn out when O=C(c1ccnn1C(F)F)N1CCc2[nH]cnc2[C@H]1c1nc2c(F)ccc(F)c2o1 [Example 487, (S)-(4-(4,7-difluorobenzo[d]oxazol-2-yl)-6,7-dihydro-1H-imidazo[4,5-c]pyridin-5(4H)-yl)(1-(difluoromethyl)-1H-pyrazol-5-yl)methanone] was run?
Answer: ≤ 500 nM

Question: O=C(c1oc(-c2ccncn2)nc1C(F)F)N1CCc2[nH]cnc2[C@H]1c1nc2cc(F)ccc2o1 [Example 526, (S)-(4-(difluoromethyl)-2-(pyrimidin-4-yl)oxazol-5-yl)(4-(5-fluorobenzo[d]oxazol-2-yl)-6,7-dihydro-1H-imidazo[4,5-c]pyridin-5(4H)-yl)methanone] was tested. Which AC50 did it give?
Answer: ≤ 500 nM

Question: For COc1cccc2oc([C@@H]3c4nc[nH]c4CCN3C(=O)c3nnc(-c4ccccn4)o3)nc12 [Example 624, (S)-(4-(4-methoxybenzo[d]oxazol-2-yl)-6,7-dihydro-1H-imidazo[4,5-c]pyridin-5(4H)-yl)(5-(pyridin-2-yl)-1,3,4-oxadiazol-2-yl)methanone], which AC50 is on record?
Answer: ≤ 500 nM

Question: For O=C(c1oc(-c2ccc(F)cn2)nc1C(F)F)N1CCc2[nH]cnc2[C@H]1c1nc2cccc(F)c2o1 [Example 632, (S)-(4-(difluoromethyl)-2-(5-fluoropyridin-2-yl)oxazol-5-yl)(4-(7-fluorobenzo[d]oxazol-2-yl)-6,7-dihydro-1H-imidazo[4,5-c]pyridin-5(4H)-yl)methanone], which AC50 is on record?
Answer: ≤ 500 nM

Question: Which AC50 does the source give for Cc1ccc2nc([C@H]3c4nc[nH]c4CCN3C(=O)c3nnc(-c4cnn(C)c4)o3)oc2c1 [Example 104, (R)-(5-(1-methyl-1H-pyrazol-4-yl)-1,3,4-oxadiazol-2-yl)(4-(6-methylbenzo[d]oxazol-2-yl)-6,7-dihydro-1H-imidazo[4,5-c]pyridin-5(4H)-yl)methanone] here?
Answer: ≥ 5000 nM

Question: For CC(C)n1ncnc1C(=O)N1CCc2[nH]cnc2[C@H]1c1nc2cccc(F)c2o1 [Example 707, (S)-(4-(7-fluorobenzo[d]oxazol-2-yl)-6,7-dihydro-1H-imidazo[4,5-c]pyridin-5(4H)-yl)(1-isopropyl-1H-1,2,4-triazol-5-yl)methanone], which AC50 is on record?
Answer: ≤ 500 nM

Same assay, conditions: A375 cells expressing R408W PAH; 24 hrs with compound, then 20 μM sepiapterin and 800 μM 13C9,15N-Phenylalanine for 4 hours; 13C-Tyrosine by LC-MS; average where tested multiple times

Question: Which AC50 does the source give for CN(C)Cc1ncc(C(=O)N2CCc3[nH]cnc3C2c2nc3cc(F)ccc3o2)o1 (stereo not drawn) here?
Answer: ≥ 5000 nM

Question: For O=C(c1cnn2cc(N3CCN(CC(F)(F)F)CC3)ccc12)N1CCc2[nH]cnc2C1c1nc2cc(F)ccc2o1 (stereo not drawn), which AC50 is on record?
Answer: ≥ 5000 nM

Question: For NCCc1ccc2c(C(=O)N3CCc4[nH]cnc4C3c3nc4cc(F)ccc4o3)cnn2c1 (single isomer, unassigned) [4S enantiomer of 2-{3-[4-(5-fluoro-1,3-benzoxazol-2-yl)-1H,4], which AC50 is on record?
Answer: ≥ 5000 nM

Question: With Cc1ncoc1C(=O)N1CC2(CC2)c2[nH]cnc2C1c1nc2cc(F)ccc2o1 (stereo not drawn) as the compound, how does the AC50 read?
Answer: 1000 to 5000 nM

Question: With CCOC(=O)N1CCN(c2ccc3c(C(=O)N4CCc5[nH]cnc5C4c4nc5cc(F)ccc5o4)cnn3c2)CC1 (stereo not drawn) as the compound, how does the AC50 read?
Answer: 1000 to 5000 nM

Question: How did the AC50 turn out when O=C(c1nnc(N2CCOCC2)o1)N1CCc2[nH]cnc2C1c1nc2cc(F)ccc2o1 (stereo not drawn) was run?
Answer: 1000 to 5000 nM

Question: O=C(c1ncc(Cl)s1)N1CCc2[nH]cnc2C1c1nc2cc(F)ccc2o1 (stereo not drawn) was tested. Which AC50 did it give?
Answer: 1000 to 5000 nM

Question: O=C(N1CCc2[nH]cnc2C1c1nc2cc(F)ccc2o1)C(F)(F)C1(O)CCC1 (stereo not drawn) was tested. Which AC50 did it give?
Answer: 1000 to 5000 nM

Question: With Cn1ncnc1C(=O)N1CCc2[nH]cnc2C1c1nc2cc(F)ccc2o1 (stereo not drawn) as the compound, how does the AC50 read?
Answer: 1000 to 5000 nM

Question: With O=C(c1nnc(-c2cnn(S(=O)(=O)C3CC3)c2)o1)N1CCc2[nH]cnc2C1c1nc2cc(F)ccc2o1 (stereo not drawn) as the compound, how does the AC50 read?
Answer: ≥ 5000 nM
